Reference: BindingDB's records for doi:10.1016/s0960-894x(98)00187-5 (Novartis Pharma, 1999)

Biological target: Somatostatin receptor type 2 (Rattus norvegicus) (UniProt P30680)
Experiment: Binding affinity for SSTR2 receptors of rat cortex membranes was determined by using [125I][Tyr3]-octreotide radioligand

Chain of Somatostatin receptor type 2 (Rattus norvegicus) (P30680 whole entry, looked up): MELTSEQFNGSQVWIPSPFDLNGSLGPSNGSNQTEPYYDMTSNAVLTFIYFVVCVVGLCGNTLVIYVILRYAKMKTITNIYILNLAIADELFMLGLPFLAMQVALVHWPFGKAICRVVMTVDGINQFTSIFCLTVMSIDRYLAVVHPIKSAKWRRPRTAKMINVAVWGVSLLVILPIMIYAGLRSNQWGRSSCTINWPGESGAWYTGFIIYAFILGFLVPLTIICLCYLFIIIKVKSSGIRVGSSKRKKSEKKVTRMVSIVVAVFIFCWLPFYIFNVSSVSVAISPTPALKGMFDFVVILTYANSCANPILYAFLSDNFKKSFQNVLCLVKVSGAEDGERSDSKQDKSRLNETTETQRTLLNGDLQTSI

C[C@@H](O)[C@@H]1NC(=O)[C@H](CCCCN)NC(=O)[C@@H](Cc2c[nH]c3ccccc23)NC(=O)[C@H](Cc2ccccc2)NC(=O)[C@@H](NC(=O)[C@@H](Cc2ccccc2)NC(=O)CN2CCN(CC(=O)O)CCN(CC(=O)O)CCN(CC(=O)O)CC2)CSSC[C@@H](C(=O)N[C@H](CO)[C@@H](C)O)NC1=O
Ki: 3.2 nM
